Assay results taken from US20250099420A1, “SMALL MOLECULE MODULATORS OF GPR139 COMPLEX” (University of Florida Research Foundation, Incorporated, priority 2022, published 2025).

Legend:
GPR139 [1] = target: T1, GPR139 (Homo sapiens, UniProt Q6DWJ6); test: GPR139 Agonist titration / agonist counterscreen assay (calcium detection, HEK-GPR139 cells); assay type: cell-based; parameters: expressed in transfected cells; host or cells: HEK Aequorin cells, Maxcyte transient transfection; conditions: agonist counterscreen of the antagonists; for EC50: scientific notation, molarity, read-out: GRP139 Agonist activity EC50
T1 sequence (Q6DWJ6 1-353): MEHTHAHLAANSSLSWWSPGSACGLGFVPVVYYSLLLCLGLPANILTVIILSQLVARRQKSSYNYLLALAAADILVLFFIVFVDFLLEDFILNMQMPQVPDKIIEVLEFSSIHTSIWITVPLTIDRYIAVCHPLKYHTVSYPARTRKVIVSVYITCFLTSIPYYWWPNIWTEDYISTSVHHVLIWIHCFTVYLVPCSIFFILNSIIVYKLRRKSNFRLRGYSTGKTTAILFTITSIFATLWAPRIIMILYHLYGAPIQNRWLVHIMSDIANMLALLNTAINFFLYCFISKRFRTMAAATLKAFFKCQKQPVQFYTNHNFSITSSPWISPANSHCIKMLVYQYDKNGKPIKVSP
Experimental: GPR activity was assessed using a calcium detection assay. […] Negative control samples were treated with DMSO. […] Intracellular calcium was measured using Calcium 5.

GPR139 [2] = target: T1, GPR139; test: GPR139 Antagonist titration assay (calcium detection, HEK-GPR139 cells, vs EC80 of S-JNJ-63533054); conditions: for GPR139 Antagonist Activity Averaged Max % Response (±St. Dev.): activity relative to known control; for GPR139 Antagonist Activity Lipophilic Efficiency (logD): based on logD; for GPR139 Antagonist Activity Lipophilic Efficiency (logP): based on logP; for GPR139 Antagonist Activity Hill Slope: fitted dose-response curve
parental HEK cells = test: HEK parental Antagonist Counterscreen Assay (non-transfected cells, acetylcholine control); assay type: cell-based; conditions: for EC50: Homo sapiens, HEK293, acetylcholine as control, scientific notation, molarity
GPR139 [3] = target: T1, GPR139; test: [3H]JNJ-63533054 radioligand competition binding assay on membranes of HEK293T/17 cells; parameters: HA signal peptide (HASP) (N); expressed in transfected cells; host or cells: HEK293T/17 cells (membrane preparation); conditions: for inhibition at 10 µM: 10 μM of the indicated compound, (10 μM) JNJ-63533054 as printed in title; for Ki: Ki=IC50/(1+C/Kd), membranes of HEK293T/17 cells expressing human GPR139, read-out: Ki ± SEM
Text: Eighteen compounds were selected for additional study. The compounds were re-synthesized and tested in radioligand binding competition assays for their ability to displace [^3H]-labeled reference agonist JNJ-63533054 on GPR139. The GPR139 construct used (pCDNA3.1-HASP-HA-GPR139) contained an N-terminal HA signal peptide (HASP), followed by an HA tag and human GPR139 (NM_001002911.4). HEK293T/17 cells were maintained in Dulbecco's modified Eagle's medium with 10% (v/v) fetal bovine serum, nonessential amino acids, and 1 mM sodium pyruvate.
Competition binding assay: Radioligand binding assay used human GPR139 expressed in HEK293T/17 cells. HEK293T/17 cells were transfected pCDNA3.1-HASP-HA-GPR139. 48 h after, cells were detached from plates by pipetting with PBS, centrifuged at 500×g for 5 min, and then the fluid was aspirated away. The cell pellets were frozen with liquid nitrogen and stored at −80° C. Pellets were homogenized in TE buffer (50 mM Tris-HCl, pH 7.4, 5 mM EDTA) and centrifuged at 1000×g at 4° C. for 5 min. Supernatant was collected and recentrifuged at 30,000×g at 4° C. for 30 min. The pellet was rehomogenized in TE buffer and incubated for 60 minutes at room temperature with eight concentrations of [^3H]JNJ-63533054 (specific activity 24.7 Ci/mmol) ranging from 0.024 nM to 400 nM. The binding reaction was terminated by filtration through GF/C filter (Waterman) followed by washes with cold TE buffer. Filters were dried in a hood overnight followed by the addition of scintillation fluid. Bound radioactivity was counted on a Hidex 600 liquid scintillation counter. […] Nonspecific binding was determined with 10 μM JNJ-63533054. The Kd values of the radioligands and IC50 of the antagonist were calculated by Graphpad Prism. Ki values were calculated as Ki=IC50/(1+C/Kd), where C is concentration of the radioligand.
Various concentrations of selected ligands were then added in the presence of 10 nM [^3H]-JNJ-63533054 and their ability to displace [^3H]labeling on cellular membranes was assessed. FIGS. 3B and 3C present representative data obtained in these experiments. […] The results of these experiments are presented in the Table 3 and confirm selective binding the compounds to GPR139 thereby validating their interaction with the intended target.

| Structure (SMILES) | GRP139 Agonist activity Averaged Max % Response (±St. Dev.) (GPR139 [1]) | EC50 (GPR139 [1]) | EC50 (GPR139 [2]) | GPR139 Antagonist Activity Ligand Efficiency (GPR139 [2]) | GPR139 Antagonist Activity Averaged Max % Response (±St. Dev.) (GPR139 [2]) | GPR139 Antagonist Activity Lipophilic Efficiency (logD) (GPR139 [2]) | GPR139 Antagonist Activity Lipophilic Efficiency (logP) (GPR139 [2]) | GPR139 Antagonist Activity Hill Slope (GPR139 [2]) | inhibition at 10 µM (GPR139 [3]) | Ki (GPR139 [3]) | HEK antagonist activity Averaged Max % Response (±St. Dev.) (parental HEK cells) | EC50 (parental HEK cells) |
| --- | --- | --- | --- | --- | --- | --- | --- | --- | --- | --- | --- | --- |
| COc1ccccc1CNC(=O)N1c2ccccc2Sc2ccccc21 [SR-01000506165] | 7.66 ± 5.35% | > 14.6 µM | 2.8 µM | 0.30 | 86.87 ± 2.82% | 1.14 | 1.14 | 0.52 | 103 ± 1.95% | 1.1 ± 0.02 µM | 5.72 ± 9.39% | > 14.6 µM |
| CCN1C(=O)c2cccc3c(S(=O)(=O)Nc4cccc(F)c4)ccc1c23 [SR-01000110577] | 5.61 ± 4.33% | > 14.1 µM | 6.9 µM | 0.28 | 81.68 ± 2.49% | 2.48 | 2.23 | 0.62 | -117 ± 2.89% | 8.03 ± 0.18 µM | 24.57 ± 3.75% | > 14.1 µM |
| COc1ccc(-c2cccc(NS(=O)(=O)c3ccc(I)cc3)c2)nn1 [SR-01000914310] | 7.64 ± 5.47% | > 14.1 µM | 6 µM | 0.29 | 72.33 ± 6.63% | 1.70 | 1.56 | 1.00 | 72.2 ± 2.78% | 1.06 ± 0.02 µM | 26.24 ± 12.88% | > 14.1 µM |
| CC(=O)N1N=C(c2ccc(C)cc2)CC1c1ccccc1Cl (centres unmarked) [SR-01000462122] | −2.6E+0 ± 5.95 ^ % | > 16.2 µM | 8.7 µM | 0.32 | 79.69 ± 2.61% | 1.04 | 1.04 | 1.19 | 22 ± 2.59% | 13.3 ± 0.3 µM | 17.80 ± 3.32% | > 16.2 µM |
| O=C(Nc1cccc(-c2nnco2)c1)C1c2ccccc2Oc2ccccc21 [SR-01000907648-1 analog] |  |  |  |  |  |  |  |  | 65.5 ± 0.72% | 6.07 ± 0.14 µM |  |  |
| CN1CCN(S(=O)(=O)c2ccc(Sc3ccc(Cl)cc3)c([N+](=O)[O-])c2)CC1 [SR-07000003837-2 analog 2] |  |  |  |  |  |  |  |  | 51.9 ± 5.47% | 1.29 ± 0.03 µM |  |  |
| Cc1cc(C)cc(-n2cnc3cc(C(=O)NCc4ccccc4Cl)ccc32)c1 [SR-01000579741] | 21.81 ± 2.59% | > 13 µM | 3.1 µM | 0.28 | 81.29 ± 5.44% | −62.7E−3 | −63.1E−3 | 2.25 |  |  | 13.52 ± 10.95% | > 13 µM |
| CCOC(=O)N1CCC(NC(=O)c2cnn3c(O)c(Cc4cccc(C)c4)c(C)nc23)CC1 [SR-01000581959] | −987E−3 ± 9.16 ^ % |  |  | 0.22 | 56.13 ± 9.03% | 2.24 | 2.24 | 1.46 |  |  | 14.54 ± 9.66% | > 13.4 µM |
| COc1ccc(OC)c(NC2=C(Cl)C(=O)N(c3ccccc3C)C2=O)c1 [SR-01000228964] | −2.6E+0 ± 5.18 ^ % | > 14.1 µM | 2.9 µM | 0.30 | 82.24 ± 3.16% | 2.79 | 2.79 | 1.53 |  |  | 24.51 ± 4.86% | > 14.1 µM |
| O=C(Nn1c(-c2cccc(Cl)c2)nc2ccccc2c1=O)c1cc(Br)ccc1Cl [SR-01000433654] | 7.71 ± 3.46% | > 10.9 µM | 7 µM | 0.25 | 82.91 ± 7.41% | −712.7E−3 | −712.7E−3 | 0.97 |  |  | 23.11 ± 4.71% | > 10.9 µM |

Further lines, with some results ahead:

| GRP139 Agonist activity Averaged Max % Response (±St. Dev.) (GPR139 [1]) | EC50 (GPR139 [1]) | EC50 (GPR139 [2]) | GPR139 Antagonist Activity Ligand Efficiency (GPR139 [2]) | GPR139 Antagonist Activity Averaged Max % Response (±St. Dev.) (GPR139 [2]) | GPR139 Antagonist Activity Lipophilic Efficiency (logD) (GPR139 [2]) | GPR139 Antagonist Activity Lipophilic Efficiency (logP) (GPR139 [2]) | GPR139 Antagonist Activity Hill Slope (GPR139 [2]) | inhibition at 10 µM (GPR139 [3]) | Ki (GPR139 [3]) | Structure (SMILES) | HEK antagonist activity Averaged Max % Response (±St. Dev.) (parental HEK cells) | EC50 (parental HEK cells) |
| --- | --- | --- | --- | --- | --- | --- | --- | --- | --- | --- | --- | --- |
| 7.91 ± 4.93% | > 14.1 µM | 6.9 µM | 0.31 | 82.77 ± 1.38% | 1.07 | 1.07 | 1.77 | 56.3 ± 7.8% | 146 ± 0.003 µM | CCCOC(=O)c1ccc(NC(=O)CSc2ccccc2)cc1 [SR-01000244770] | 15.65 ± 7.33% | > 14.1 µM |
|  |  |  |  |  |  |  |  | 107 ± 1.95% | 1.68 ± 0.04 µM | O=C(NCCC1=CCCCC1)N1c2ccccc2Sc2ccccc21 [SR-01000452455-1 analog] |  |  |
|  |  |  |  |  |  |  |  | 88.7 ± 21.1% | 9.45 ± 0.21 µM | CC(=O)Nc1ccc(Sc2ccc(S(=O)(=O)Nc3ccc(C)cc3C)cc2[N+](=O)[O-])cc1 [SR-07000003837-2 analog 1] |  |  |
| −11.2 ± 4.96% | > 13.3 µM | 10.2 µM | 0.30 | 60.57 ± 14.37% | 1.28 | 1.28 | 1.32 |  |  | Brc1ccc2[nH]cc(-c3nnc4ccc5ccccc5n34)c2c1 [SR-01000524226] | −2.2E+0 ± 7.28 ^ % | > 13.3 µM |
| 2.74 ± 8.83% | > 13.9 µM | > 13.9 µM | 0.24 | 49.37 ± 5.06% | −233.9E−3 | −233.9E−3 |  |  |  | Cc1cc(C(F)(F)F)nc(SCC(=O)Nc2cccc(C(F)(F)F)c2)c1C#N [SR-01000507831] | 11.97 ± 1.54% | > 13.9 µM |
